Tests used:
[1] = system: Malassezia furfur (ATCC #38593); assay: Malassezia furfur growth inhibition assay (96-well, Alamar blue); type: cell-based
Description: Malassezia furfur (ATCC #38593) was cultured on Media C agar for 7 days at 37° C. Yeast colonies were then harvested into 0.9% saline sterile diH2O and diluted to approximately 1.5×10^6 CFU/mL using a 0.5 MacFarland standard (Fisher # R20410) to create an assay inoculum. Assay inoculum was added to sterile Media C broth to a final concentration of 4.5×10^4 CFU/mL. Assays were carried out in 96 well plates with a final well volume of 100 μL. Extract fractions and pure compounds were tested in triplicate against each organism. Extract fractions and pure compounds were re-suspended in sterile 20% DMSO. Extract fractions were assayed at two concentrations (50 and 250 μg/mL) with a final well volume concentration of 2% DMSO while pure compounds were serially diluted to generate a range of eight concentrations (128 μg/mL to 1 μg/mL) in a final well volume concentration of 2% DMSO. Each plate contained eight un-inoculated positive controls (media+20% DMSO), eight untreated negative controls (Media+20% DMSO+organism), and one column containing a concentration range of a ketoconazole as a control antibiotic. The assay plate was incubated at 37° C. for 5 days after which growth within the wells were visualised and photographed with a UVP Biospectrum 500 imaging system. Alamar blue was then added to each well at 10% of the culture volume (11 μL in 100 μL). Fluorescence was monitored using a BioTek Synergy HT plate reader at 530/25 excitation, 590/35 emission and 35 sensitivity at both time zero and 4 hrs after Alamar blue was added. After subtracting the time zero emission 590 nm measurement from the final reading the inferred percentage of microorganism survival relative to vehicle control wells were calculated and the IC50 was determined.

[2] = system: M. furfur; assay: Anti-fungal effect against M. furfur in a shampoo type formulation; type: cell-based, Malassezia furfur
Description: Experimentation was carried out to assess the anti-fungal effect of the fumagillin derivative alone and in combination with pseurotin A against M. furfur in a shampoo type formulation.
Compositions of the fumagillin derivative with and without pseurotin A were created and suspended into the baby shampoo. The shampoo mixture was then diluted out into the assay in a similar manner to Head & Shoulders, so that various dilution points in the assay represented multiple sub-inhibitory concentrations of the fumagillin derivative and pseurotin A.

[3] = system: Adult human epidermal keratinocytes (Heka); assay: Keratinocyte cytotoxicity assay (Alamar blue); type: cell-based
Description: Adult human epidermal keratinocytes (Heka) isolated from skin (Invitrogen # C-005-5C) were grown and maintained in 15 mL of EPilife medium (Invitrogen # M-EPI-500) supplemented with HKGS growth supplements (Invitrogen # S-001-5) (0.2% v/v bovine pituitary extract (BPE), 5 μg/mL bovine insulin, 0.18 μg/mL hydrocortisone, 5 μg/mL bovine transferrin, 0.2 ng/mL human epidermal growth factor) and 50 μg/mL gentamicin (Sigma # G1397-10ML) in T75 cm^2 cell culture flasks (VWR # CABD353136) and incubated at 37° C. in a humidified atmosphere of 5% CO2. Growth medium was refreshed every 2 days until the cells reached 50% confluency and then the medium was refreshed every 24 hrs until 80% confluency was obtained.
At 80% confluency, the cells were counted, diluted and plated into 96 well treated cell culture plates (VWR #29442-054) at a cell density of 10000 cells per well in 90 μL of respective growth medium. […]
(§1) All samples were tested in triplicate. […] Fluorescence was monitored using a BioTek Synergy HT plate reader at 530/25 excitation, 590/35 emission and 35 sensitivity at both time zero and 4 hrs after Alamar blue was added. After subtracting the time zero emission 590 nm measurement from the final reading the inferred percentage of microorganism survival relative to vehicle control wells were calculated and the IC50 was determined.

[4] = system: Human foreskin BJ fibroblast cells (ATCC CRL-2522); assay: Fibroblast cytotoxicity assay (Alamar blue); type: cell-based
Description: Human foreskin BJ fibroblast cells (ATCC CRL-2522) were grown and maintained in 15 mL of Eagle's minimal essential medium (Sigma M5650) supplemented with 10% fetal bovine serum (VWR # CA95043-976) and […] penicillin and 0.1 mg/mL streptomycin (VWR # CA12001-692) in T75 cm^2 cell culture flasks (VWR # CABD353136) at 37° C. in a humidified atmosphere of 5% CO2. Culture medium was refreshed every two to three days and cells were not allowed to exceed 80% confluency.
At 80% confluency, the cells were counted, diluted and plated into 96 well treated cell culture plates (VWR #29442-054) at a cell density of 10000 cells per well in 90 μL of respective growth medium. All media used for the assay were the same without the addition of antibiotics. The plates were incubated at 37° C. in a humidified atmosphere of 5% CO2 to allow cells to adhere to the plates for 24 hrs before treatment. DMSO was used as the vehicle at a final concentration of 1% in the wells. […]
as §1

Row | SMILES | antifungal effect against Malassezia yeasts ([1]; screening of extracts) | antifungal effect against M. furfur ([2]; shampoo type formulation, alone or as mixture at sub-MIC concentrations) | IC50 ([1]; Malassezia furfur, ATCC38593, 120 h, 37° C., 5 days, Alamar blue) | MIC ([1]; Malassezia furfur, ATCC38593, 120 h, 37° C., 5 days, pure compound 128 to 1 μg/mL) | IC50 ([3]; Homo sapiens, HEKa, 24 hrs treatment, cytotoxicity) | Keratinocyte MIC ([3]; human, 24 h) | IC50 ([4]; Homo sapiens, Fibroblast, 24 hrs treatment, cytotoxicity) | Fibroblast MIC ([4]; human, 24 h) | MIC ([2]; Malassezia furfur, fumagillin derivative alone, suspended in baby shampoo)
1 | CC/C=C\[C@H](O)[C@H](O)C1=C(C)C(=O)[C@]2(O1)C(=O)N[C@@](OC)(C(=O)c1ccccc1)[C@@H]2O [Pseurotin A, pseurotin A, reference compound] | some activity against M. furfur | antifunimgal effect against M. furfur was observed | – | – | – | – | – | – | –
2 | CO[C@@H]1[C@H](OC(=O)/C=C/[C@H]2O[C@@H]2C)CC[C@]2(CO2)[C@H]1[C@@]1(C)O[C@@H]1CC=C(C)C [Fumagillin derivative] | – | – | ~0.7 µg/mL | ~2 µg/mL | > 64 µg/mL | >64 µg/mL | > 64 µg/mL | >64 µg/mL | 1.25 µg/mL

— patent publication US10821064B2, “Anti-dandruff agents” (Croda International PLC, priority 2015, dated 2020)
